In patent publication US8680073B2, “Stable hyaluronan/steroid formulation” (Genzyme Corporation, priority 2009, dated 2014):

Columns and labels:
Assay type in all cases: physicochemical
[1] = Rheology of HA viscosupplement/steroid formulations by heat treatment; conditions: formulations of HARC with the steroid, compared to control without steroid
Experimental: (§1) We conducted various experiments in which a number of steroids, both soluble and insoluble, were mixed with HA-based viscosupplements, and the heat stability of the HA/steroid formulations were evaluated at 121° C. for 30 min (simulated autoclave conditions), to achieve a bioburden inactivation of approximate 30 Fo, where Fo is the total heat applied during the cycle to achieve a desired probable inactivation ratio). Formulations were also evaluated after heating at 80° C. for 24 hours (simulated two year room temperature shelf-life).
Specifically we tested the TAH mixtures with SYNVISC® and hylastan products of Genzyme Corporation, Framingham Mass.^1 The rheological properties of the heat treated SYNVISC®/steroid and hylastan SGL-80/steroid formulations plus their controls are listed in Tables 1a and 1b, respectively, set out below. 1 Synvisc is a gel-like mixture that is made up of hylan A fluid, hylan B gel, and salt water. Hylan A and hylan B are made from a substance called hyaluronan (also known as sodium hyaluronate) from chicken combs.

[2] = pH of HA viscosupplement/steroid formulations by heat treatment
Experimental: as §1
(§2) Compositions retained suitable pH and osmolarity.

[3] = Osmolality of HA viscosupplement/steroid formulations by heat treatment
Experimental: as §1, §2

Compound | Effect of the steroid on HARC properties after heat treatment [1] | Change in pH after mixing into the HA-based viscosupplements [2] | Change in osmolality after mixing into the HA-based viscosupplements [3]
CC(=O)OCC(=O)[C@@]1(O)[C@@H](C)C[C@H]2[C@@H]3CCC4=CC(=O)C=C[C@]4(C)[C@@]3(F)[C@@H](O)C[C@@]21C [betamethasone acetate] | interacted with HARC | – | –
CC(C)(C)CC(=O)OCC(=O)[C@@]12OC(C)(C)O[C@@H]1C[C@H]1[C@@H]3CCC4=CC(=O)C=C[C@]4(C)[C@@]3(F)[C@@H](O)C[C@@]12C [TAH, triamcinolone hexacetonide] | behaved to comparably to control formulations having no steroid | no significant change | no significant change
C[C@H]1C[C@H]2[C@@H]3CCC4=CC(=O)C=C[C@]4(C)[C@@]3(F)[C@@H](O)C[C@]2(C)[C@@]1(O)C(=O)COP(=O)(O)O [betamethasone phosphate] | exacerbated degradation of HARC properties after heat treatment | – | –
